# According to publication PMC4644118 (Journal of medicinal chemistry, 2015):
# What was measured:
# rat nNOS = rat nNOS (Rattus norvegicus, UniProt P29476); assay: hemoglobin capture assay, purified rat nNOS; type: biochemical; conditions: relative to 21
# [1] = mice; background statement on previous lead; cited from earlier work
Compound,fold weaker binding to nNOS than 21 (rat nNOS),oral bioavailability and brain permeation [1]
"Cl.Cl.Nc1ccc2ccc(COc3cccnc3)cc2n1 [Compound 11, 7-[(Pyridin-3-yloxy)methyl]quinolin-2-amine Dihydrochloride]",~17 fold,–
Cl.Cl.Nc1ccc2ccc(CCNCCc3cccc(F)c3)cc2n1 [Compound 1],–,good oral bioavailability and brain permeation
